Reference: US11149037B2, “Pyrazole MAGL inhibitors” (H. Lundbeck A/S, priority 2017, dated 2021)

Columns and labels:
[1] = target: MAGL (Homo sapiens (Human), UniProt Q99685); experiment: In vitro competitive activity-based protein profiling, human proteomes (prefrontal cortex or PC3 cell membrane fractions); format: biochemical; conditions: human proteome; for inhibition at 1 µM: read-out: MAGL % inh. 1 μM (human)
How it was run: (§1)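 Activity of MAGL and FAAH was quantified from fluorescent gel band intensities. Beforehand, inhibitors at several concentrations competed against subsequent probe labelling (FP-Rh, JW912 or HT-01) in species-matched proteomes, each step 30 min at 37° C.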

[2] = target: T1, MAGL (Mus musculus (Mouse), UniProt O35678); experiment: In vitro competitive activity-based protein profiling, mouse proteomes (brain membrane fraction or cell lysates); format: biochemical; conditions: mouse proteome, read-out: MAGL % inh. 1 μM (mouse)
T1 sequence (O35678 whole entry): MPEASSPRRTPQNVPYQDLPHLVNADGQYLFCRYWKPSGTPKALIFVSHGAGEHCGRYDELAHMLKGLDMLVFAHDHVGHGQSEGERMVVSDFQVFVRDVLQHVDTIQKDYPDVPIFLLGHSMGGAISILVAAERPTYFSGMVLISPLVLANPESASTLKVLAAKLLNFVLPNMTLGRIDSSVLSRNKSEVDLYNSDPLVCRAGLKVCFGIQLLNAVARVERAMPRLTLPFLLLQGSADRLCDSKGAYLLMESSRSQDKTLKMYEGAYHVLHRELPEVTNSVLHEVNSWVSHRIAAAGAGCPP
How it was run: as §1

[3] = target: T1, MAGL; experiment: Mouse brain proteomes from inhibitor treated mice (oral gavage, sacrificed 4 h after administration); format: in vivo; conditions: 5 mg/kg oral gavage
Protocol: Preparation of Mouse Brain Proteomes from Inhibitor Treated Mice.
Inhibitors were administered to wild-type C57B1/6J by oral gavage in a vehicle of polyethylene glycol. Each animal was sacrificed 4 h following administration and brain proteomes were prepared and analyzed according to previously established methods (See Niphakis, M. J., et al. (2011) ACS Chem. Neurosci. and Long, J. Z., et al. Nat. Chem. Biol. 5:37-44).

[4] = target: FAAH (Homo sapiens (Human), UniProt O00519); experiment: In vitro competitive activity-based protein profiling, human proteomes (prefrontal cortex or PC3 cell membrane fractions); format: biochemical; conditions: human proteome; for inhibition at 1 µM: read-out: FAAH % inh. 1 μM (human)
FAAH (Homo sapiens (Human), UniProt O00519), sequence (O00519 whole entry): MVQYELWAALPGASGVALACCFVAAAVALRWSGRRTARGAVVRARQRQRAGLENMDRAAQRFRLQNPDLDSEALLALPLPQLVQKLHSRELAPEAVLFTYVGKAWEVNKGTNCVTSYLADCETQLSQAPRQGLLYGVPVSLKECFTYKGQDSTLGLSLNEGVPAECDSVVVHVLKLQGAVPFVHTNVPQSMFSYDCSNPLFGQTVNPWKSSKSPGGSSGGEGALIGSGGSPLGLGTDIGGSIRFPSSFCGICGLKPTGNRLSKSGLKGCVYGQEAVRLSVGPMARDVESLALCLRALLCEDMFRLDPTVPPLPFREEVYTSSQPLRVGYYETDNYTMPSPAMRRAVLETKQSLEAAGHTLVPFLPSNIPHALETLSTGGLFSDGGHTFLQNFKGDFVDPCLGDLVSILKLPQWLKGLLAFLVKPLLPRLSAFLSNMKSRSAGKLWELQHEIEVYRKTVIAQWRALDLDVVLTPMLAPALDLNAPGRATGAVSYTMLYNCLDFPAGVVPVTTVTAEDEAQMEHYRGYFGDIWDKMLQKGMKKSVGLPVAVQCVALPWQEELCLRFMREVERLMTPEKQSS
How it was run: as §1

[5] = target: FAAH (Mus musculus (Mouse), UniProt O08914); experiment: In vitro competitive activity-based protein profiling, mouse proteomes (brain membrane fraction or cell lysates); format: biochemical; conditions: mouse proteome, read-out: FAAH % inh. 1 μM (mouse)
FAAH (Mus musculus (Mouse), UniProt O08914), sequence (O08914 whole entry): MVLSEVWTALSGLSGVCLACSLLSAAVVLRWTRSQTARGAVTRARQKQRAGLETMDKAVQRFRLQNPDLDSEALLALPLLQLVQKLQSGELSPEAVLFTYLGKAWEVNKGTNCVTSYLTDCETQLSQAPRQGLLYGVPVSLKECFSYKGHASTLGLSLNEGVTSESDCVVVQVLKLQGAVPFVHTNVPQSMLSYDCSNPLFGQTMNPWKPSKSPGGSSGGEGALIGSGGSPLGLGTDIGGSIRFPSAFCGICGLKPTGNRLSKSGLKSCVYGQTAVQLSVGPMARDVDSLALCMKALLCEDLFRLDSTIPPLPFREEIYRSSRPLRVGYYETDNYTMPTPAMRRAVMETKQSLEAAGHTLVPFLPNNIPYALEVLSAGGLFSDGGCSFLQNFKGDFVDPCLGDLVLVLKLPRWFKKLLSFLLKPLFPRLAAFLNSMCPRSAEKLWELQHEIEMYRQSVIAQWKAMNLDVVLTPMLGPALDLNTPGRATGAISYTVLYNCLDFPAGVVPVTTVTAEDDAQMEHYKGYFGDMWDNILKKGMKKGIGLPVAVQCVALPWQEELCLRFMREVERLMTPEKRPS
How it was run: as §1

MAGL (Homo sapiens (Human), UniProt Q99685), sequence (Q99685 whole entry): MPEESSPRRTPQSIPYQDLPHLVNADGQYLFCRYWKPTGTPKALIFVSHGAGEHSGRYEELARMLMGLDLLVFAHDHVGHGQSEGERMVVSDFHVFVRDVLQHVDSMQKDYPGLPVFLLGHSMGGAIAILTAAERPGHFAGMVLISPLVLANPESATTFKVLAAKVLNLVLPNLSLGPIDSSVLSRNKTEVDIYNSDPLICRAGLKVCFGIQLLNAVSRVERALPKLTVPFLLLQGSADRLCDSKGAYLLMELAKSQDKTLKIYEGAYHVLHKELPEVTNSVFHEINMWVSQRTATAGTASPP

Row | inhibition at 1 µM [1] [%] | inhibition at 1 µM [2] [%] | inhibition at 1 µM [4] [%] | inhibition at 1 µM [5] [%] | IC50 [4] [µM] | IC50 [1] [µM] | inhibition at 10 µM ([1]; 10 μM, read-out: MAGL % inh. (human) @ 10 μM) [%] | SMILES | MAGL % inh. 5 mg/kg (mouse) [3]
1 | > 75 | > 75 | – | – | – | – | – | CC(C)N1CCN(c2cc(CN3CCN(C(=O)n4ccc(NS(C)(=O)=O)n4)C[C@@H]3C)ccc2Cl)CC1=O [Example 190, (S)-N-(1-(4-(4-Chloro-3-(4-isopropyl-3-oxopiperazin-1-yl)benzyl)-3-methylpiperazine-1-carbonyl)-1H-pyrazol-3-yl)methanesulfonamide] | D (% inhibition is greater than or equal to 0% and less than 25%)
2 | > 75 | > 75 | 0 to 25 | 50 to 75 | – | – | – | CS(=O)(=O)Nc1ccn(C(=O)N2CCC3(CCN(Cc4ccc(C(F)(F)F)c(N5CCCC5)c4)C3)CC2)n1 [Example 73, N-(1-(2-(3-(Pyrrolidin-1-yl)-4-(trifluoromethyl)benzyl)-2,8-diazaspiro[4.5]decane-8-carbonyl)-1H-pyrazol-3-yl)methanesulfonamide] | –
3 | 25 to 50 | 50 to 75 | 0 to 25 | 0 to 25 | – | – | – | Cc1nc(Cl)ccc1CN1CCN(C(=O)n2ccc(NS(C)(=O)=O)n2)CC1 [Example 61, N-(1-(4-((6-Chloro-2-methylpyridin-3-yl)methyl)piperazine-1-carbonyl)-1H-pyrazol-3-yl)methanesulfonamide] | –
4 | > 75 | > 75 | > 75 | > 75 | 0.1 to 1 | < 0.1 | – | CC(=O)Nc1ccn(C(=O)N2CC3CN(Cc4ccc(N5CCCC5)cc4C(F)(F)F)CC3C2)n1 (stereo not shown) [Example 121, N-(1-(5-(4-(Pyrrolidin-1-yl)-2-(trifluoromethyl)benzyl)octahydropyrrolo[3,4-c]pyrrole-2-carbonyl)-1H-pyrazol-3-yl)acetamide] | –
5 | > 75 | 0 to 25 | 0 to 25 | 0 to 25 | – | – | – | CS(=O)(=O)Nc1ccn(C(=O)N2CCC3(CCN(Cc4ccc(Cl)cc4)C3)CC2)n1 [Example 164, N-(1-(2-(4-Chlorobenzyl)-2,8-diazaspiro[4.5]decane-8-carbonyl)-1H-pyrazol-3-yl)methanesulfonamide] | –
6 | > 75 | > 75 | > 75 | > 75 | 0.1 to 1 | < 0.1 | – | CS(=O)(=O)Nc1ccn(C(=O)N2CCN(Cc3cccc(Oc4ccc(Cl)cc4)c3)CC2)n1 [Example 149, N-(1-(4-(3-(4-Chlorophenoxy)benzyl)piperazine-1-carbonyl)-1H-pyrazol-3-yl)methanesulfonamide] | –
7 | > 75 | > 75 | 0 to 25 | > 75 | 1 to 10 | < 0.1 | – | CC(=O)Nc1ccn(C(=O)N2CCC3(CCCN3C(=O)c3ccc(Cl)c(C4CC4)c3)CC2)n1 [Example 20, N-(1-(1-(4-chloro-3-cyclopropylbenzoyl)-1,8-diazaspiro[4.5]decane-8-carbonyl)-1H-pyrazol-3-yl)acetamide] | –
8 | > 75 | > 75 | 0 to 25 | 0 to 25 | – | – | – | CS(=O)(=O)Nc1ccn(C(=O)N2CCC3(CCN(Cc4ccc(C(F)(F)F)cc4N4CCOCC4)C3)CC2)n1 [Example 62, N-(1-(2-(2-Morpholino-4-(trifluoromethyl)benzyl)-2,8-diazaspiro[4.5]decane-8-carbonyl)-1H-pyrazol-3-yl)methanesulfonamide] | –
9 | 50 to 75 | 0 to 25 | 0 to 25 | 0 to 25 | – | – | – | CS(=O)(=O)Nc1ccn(C(=O)N2CCN(Cc3ccc(C(F)(F)F)cc3NCCC(=O)O)CC2)n1 [Example 77, 3-((2-((4-(3-(Methylsulfonamido)-1H-pyrazole-1-carbonyl)piperazin-1-yl)methyl)-5-(trifluoromethyl)phenyl)amino)propanoic acid] | –
10 | > 75 | > 75 | 0 to 25 | 0 to 25 | – | – | – | C[C@H]1CCCN1c1cc(CN2CCN(C(=O)n3ccc(NS(C)(=O)=O)n3)CC2)ccc1C(F)(F)F [Example 151, (S)-N-(1-(4-(3-(2-Methylpyrrolidin-1-yl)-4-(trifluoromethyl)benzyl)piperazine-1-carbonyl)-1H-pyrazol-3-yl)methanesulfonamide] | –
11 | > 75 | > 75 | 0 to 25 | 0 to 25 | – | – | – | CC(=O)Nc1ccn(C(=O)N2CCN(Cc3cccc(C(F)(F)F)c3C)CC2)n1 [Example 129, N-(1-(4-(2-Methyl-3-(trifluoromethyl)benzyl)piperazine-1-carbonyl)-1H-pyrazol-3-yl)acetamide] | –

The remaining lines, values behind:

Row | SMILES | inhibition at 1 µM [1] [%] | inhibition at 1 µM [2] [%] | inhibition at 1 µM [4] [%] | inhibition at 1 µM [5] [%] | IC50 [4] [µM] | IC50 [1] [µM] | inhibition at 10 µM ([1]; 10 μM, read-out: MAGL % inh. (human) @ 10 μM) [%] | MAGL % inh. 5 mg/kg (mouse) [3]
12 | CC(=O)Nc1ccn(C(=O)N2CCC3(CCN(Cc4ccc(N5CCCC5)cc4C(F)(F)F)C3)CC2)n1 [Example 23, N-(1-(2-(4-(pyrrolidin-1-yl)-2-(trifluoromethyl)benzyl)-2,8-diazaspiro[4.5]decane-8-carbonyl)-1H-pyrazol-3-yl)acetamide] | > 75 | > 75 | > 75 | > 75 | 0.1 to 1 | < 0.1 | – | –
13 | CC(=O)Nc1ccn(C(=O)N2CCC3(CCCN3Cc3cc4cc(Cl)ccc4[nH]3)CC2)n1 [Example 38, N-(1-(1-((5-Chloro-1H-indol-2-yl)methyl)-1,8-diazaspiro[4.5]decane-8-carbonyl)-1H-pyrazol-3-yl)acetamide] | – | > 75 | – | 25 to 50 | 1 to 10 | < 0.1 | – | –
14 | CS(=O)(=O)Nc1ccn(C(=O)N2CC3CN(Cc4cc(Cl)ccc4C(F)(F)F)CC3C2)n1 (stereo not shown) [Example 45, N-(1-(5-(5-Chloro-2-(trifluoromethyl)benzyl)octahydropyrrolo[3,4-c]pyrrole-2-carbonyl)-1H-pyrazol-3-yl)methanesulfonamide] | – | 0 to 25 | 0 to 25 | 0 to 25 | – | – | 0 to 25 | –
15 | CS(=O)(=O)Nc1ccn(C(=O)N2CCC3(CCN(Cc4ccc(N5CC6COCC6C5)c(Cl)c4)C3)CC2)n1 (stereo not shown) [Example 160, N-(1-(2-(3-Chloro-4-(tetrahydro-1H-furo[3,4-c]pyrrol-5(3H)-yl)benzyl)-2,8-diazaspiro[4.5]decane-8-carbonyl)-1H-pyrazol-3-yl)methanesulfonamide] | 50 to 75 | 0 to 25 | 25 to 50 | 0 to 25 | – | – | – | –
16 | CCN1CC2CN(c3cc(CN4CCN(C(=O)n5ccc(NS(C)(=O)=O)n5)CC4)ccc3Cl)CC2C1 (stereo not shown) [Example 153, N-(1-(4-(4-Chloro-3-(5-ethylhexahydropyrrolo[3,4-c]pyrrol-2(1H)-yl)benzyl)piperazine-1-carbonyl)-1H-pyrazol-3-yl)methanesulfonamide] | > 75 | 50 to 75 | 0 to 25 | 0 to 25 | – | – | – | –
17 | CS(=O)(=O)Nc1ccn(C(=O)N2CCC(Oc3ccc(C(F)(F)F)cc3C(=O)N3CCCC3)CC2)n1 [Example 101, N-(1-(4-(2-(Pyrrolidine-1-carbonyl)-4-(trifluoromethyl)phenoxy)piperidine-1-carbonyl)-1H-pyrazol-3-yl)methanesulfonamide] | > 75 | 50 to 75 | 0 to 25 | 0 to 25 | – | – | – | –
18 | CS(=O)(=O)Nc1ccn(C(=O)N2CCC3(CCN(Cc4cc(N5CCOCC5)cc(C(F)(F)F)c4)C3)CC2)n1 [Example 59, N-(1-(2-(3-Morpholino-5-(trifluoromethyl)benzyl)-2,8-diazaspiro[4.5]decane-8-carbonyl)-1H-pyrazol-3-yl)methanesulfonamide] | > 75 | > 75 | 0 to 25 | 0 to 25 | – | – | – | –
19 | CS(=O)(=O)Nc1ccn(C(=O)N2CC3CN(Cc4cccc(OC(F)(F)F)c4)CC3C2)n1 (stereo not shown) [Example 115, N-(1-(5-(3-(Trifluoromethoxy)benzyl)octahydropyrrolo[3,4-c]pyrrole-2-carbonyl)-1H-pyrazol-3-yl)methanesulfonamide] | > 75 | 25 to 50 | 25 to 50 | > 75 | – | – | – | –
20 | CS(=O)(=O)Nc1ccn(C(=O)N2CCC(Oc3ccc(C(F)(F)F)c(N4CCC(F)CC4)c3)CC2)n1 [Example 109, N-(1-(4-(3-(4-Fluoropiperidin-1-yl)-4-(trifluoromethyl)phenoxy)piperidine-1-carbonyl)-1H-pyrazol-3-yl)methanesulfonamide] | > 75 | > 75 | 0 to 25 | 0 to 25 | – | – | – | –
21 | CS(=O)(=O)Nc1ccn(C(=O)N2CCC(Oc3ccc(C(F)(F)F)c(OC4CCCC4)c3)CC2)n1 [Example 110, N-(1-(4-(3-(Cyclopentyloxy)-4-(trifluoromethyl)phenoxy)piperidine-1-carbonyl)-1H-pyrazol-3-yl)methanesulfonamide] | > 75 | > 75 | 0 to 25 | 0 to 25 | – | – | – | –
